Measurements published in publication PMC8522729 (Antimicrobial Agents and Chemotherapy, 2021).
Converted amounts (≈) assume the structure as drawn. Like-named read-outs stand apart in the source and are kept apart here.

Experiments:
[1] = cited from earlier work
[2] = cited from earlier work; remark: listed apart in the source
M. tuberculosis H37Rv [3] = test system: M. tuberculosis H37Rv; parameters: method as in PMID 19299584; conditions: cited from earlier work
M. tuberculosis Kurono = test system: M. tuberculosis Kurono; parameters: method as in PMID 32229496; conditions: chronic ICR mouse model, cited from earlier work
[4] = test system: nonreplicating bacteria in rabbit caseum; assay: Caseum MBC assay; type: cell-based, Mycobacterium tuberculosis; conditions: 7 days
M. tuberculosis [5] = conditions: QD, cited from earlier work
[6] = test system: M. tuberculosis Erdman-infected C3HeB/FeJ mice; assay: Efficacy in the C3HeB/FeJ mouse tuberculosis model (CFU in lungs and spleens, kill rates); type: in vivo; conditions: for dose at which maximal efficacy in spleens was achieved / LME (lowest dose with the maximum effect) in lungs: 8 weeks of treatment, OPC-167832 QD; for dose at which maximal efficacy in spleens was achieved: TBA-7371 BID (not yet achieved); for LME (lowest dose with the maximum effect) in lungs: TBA-7371 BID, PBTZ169 QD; for average lung CFU reduction compared to untreated controls: 5 of 7 days per week; for CFU reduction in spleen: spleens; for CFU reduction in spleen / effect on lung CFU compared to pretreatment control and untreated controls: 4 weeks of treatment, all doses; for effect on lung CFU compared to pretreatment control and untreated controls: P > 0.05
[7] = Plasma, lung and lesion drug levels (LC-MS/MS and LCM-LC-MS/MS)
[8] = C3HeB/FeJ, mouse, in vivo
M. tuberculosis Erdman = assay: MIC by broth microdilution (MABA), with and without 4% huSA (serum-shift assay); conditions: for Serum shift (fold increase): M. tuberculosis Erdman, MIC with 4% huSA vs without; for protein binding by this assay (MIC shift): indicated by 8-fold MIC shift with 4% huSA
M. tuberculosis [9] = conditions: chronic BALB/c mouse model, cited from earlier work
M. tuberculosis [10] = conditions: cited from earlier work
[11] = test system: pulmonary pathology of M. tuberculosis-infected C3HeB/FeJ mice; assay: Pulmonary histopathology (pathologist scoring and LIRA); type: in vivo; conditions: 100 mg/kg QD, 8 weeks
M. tuberculosis H37Rv [12] = assay: MIC by broth microdilution (MABA), with and without 4% huSA (serum-shift assay); conditions: MIC with 4% huSA vs without
M. tuberculosis [13] = test system: M. tuberculosis; parameters: method as in PMID 24957839, PMID 24215368, PMID 24874895; conditions: acute BALB/c mouse model; 100 mg/kg QD; cited from earlier work
[14] = lungs, 8 weeks, all three OPC-167832 groups, TBA-7371 medium and high dose, PBTZ169 medium and high dose, P < 0.05 Dunnett
[15] = C3HeB/FeJ, mouse, in vivo, 5 mg/kg

## C[C@H]1COC2(CCN(c3nc(=O)c4cc(C(F)(F)F)cc([N+](=O)[O-])c4s3)CC2)O1 [BTZ043]
[1]
  plasma protein binding: > 99.8%
[2]
  selectivity index: > 10,000
M. tuberculosis H37Rv [3]
  MIC: 1 ng/mL (≈ 0.00232 µM)

## O=C1CCc2c(OC[C@]3(O)CCN(c4c(F)cc(Cl)cc4F)C[C@H]3O)ccc(F)c2N1 [OPC-167832]
M. tuberculosis Kurono; 5 mg/kg for 4 weeks
  CFU reduction in lungs versus the start of treatment: > 1.5 log10 CFU
M. tuberculosis Kurono
  dose showing bactericidal activity: 0.625 mg/kg
[4]; Mycobacterium tuberculosis, 168 h, rabbit caseum, read-out: caseum MBC90
  MBC: 500 µg/mL (≈ 1090 µM)
[4]; highest concentration tested (1 mg/ml), P = 0.0005
  reduction from treatment start in caseum: 1 log
M. tuberculosis [5]
  MED99 (minimal effective dose giving 2-log reduction in lung bacterial load vs untreated): 5 mg/kg
[6]
  dose at which maximal efficacy in spleens was achieved: 5 mg/kg
  LME (lowest dose with the maximum effect) in lungs: 5 mg/kg
  CFU reduction in spleen: dose-dependent CFU reduction
[6]; 8 weeks, 5 and 20 mg/kg QD
  average lung CFU reduction compared to untreated controls: 3 log10 CFU
[6]; lungs, 4 weeks, 20 mg/kg QD, P = 0.04 Dunnett
  efficacy in lungs versus the pretreatment control group: statistically significant efficacy
[6]; lungs, 4 weeks, all three dose groups (1.25, 5, 20 mg/kg QD), P = 0.002 to 0.03 Dunnett
  lung bacterial load compared to the untreated control group: statistically significant reduction in lung bacterial load
[6]; [14]
  lung bacterial load compared to the untreated control group: statistical significant reduction in the lung bacterial load
[7]; 5 mg/kg QD, 2.5 weeks
  drug level in caseous core / cellular-caseum interface at plasma Cmax, fold in excess of the MIC+huSA: approximately 21 fold
[7]; [15]
  Cmax at 1 h: 35 ng/g
  concentration at 1 h: 190 ng/g
  concentration at 24 h: 34 to 108 ng/g
[8]; 1 h
  concentration in caseum (acellular) at T1, fold above the MIC+huSA: 12 fold
  concentration in caseum at T1, fold in excess of the MIC+huSA: 20 fold
  plasma and lung concentration at T1, fold above the MIC+huSA: 75-85 fold
M. tuberculosis Erdman
  Serum shift (fold increase): 8 fold
  protein binding by this assay (MIC shift): ~88%

## O=c1nc(N2CCN(CC3CCCCC3)CC2)sc2c([N+](=O)[O-])cc(C(F)(F)F)cc12 [PBTZ169, macozinone]
M. tuberculosis [9]; after 4 weeks of treatment
  CFU reduction in lungs versus untreated controls: 1 log10 CFU
M. tuberculosis [9]
  additional CFU reduction in lungs versus BTZ043: 0.5 log10 CFU
  additional CFU reduction in spleens versus BTZ043: 1 log10 CFU
M. tuberculosis [10]
  MIC fold lower versus BTZ043: 3 fold
[11]
  type III cellular lesions, lung involvement (LIRA): more than 35%
  type III lesion lung involvement relative to untreated control group (LIRA): more than 2 fold
M. tuberculosis [5]; published or reported mouse infection studies, no reference given
  MED99 (minimal effective dose giving 2-log reduction in lung bacterial load vs untreated): 50 mg/kg
[2]
  selectivity index: > 10,000
[6]
  LME (lowest dose with the maximum effect) in lungs: 50 mg/kg
  CFU reduction in spleen: no statistically significant CFU reduction
[6]; 8 weeks, 50 and 100 mg/kg QD
  average lung CFU reduction compared to untreated controls: 1.5 log10 CFU
[6]; lungs
  effect on lung CFU compared to pretreatment control and untreated controls: not statistically significant
[6]; [14]
  lung bacterial load compared to the untreated control group: statistical significant reduction in the lung bacterial load
[7]; 50 mg/kg QD, 2.5 weeks
  Cmax in the cellular-caseum interface and caseum, fold lower than plasma or whole lung Cmax: 10 fold
[7]; 50 mg/kg QD, 2.5 weeks, T1 15 min
  concentration in plasma and lungs at T1 (Cmax): around 1 μg/ml or μg/g
[8]; 15 min
  plasma and lung concentration at T1, fold above the MIC+huSA: 11-20 fold
M. tuberculosis Erdman
  Serum shift (fold increase): 8 fold
  protein binding by this assay (MIC shift): ~88%

## O=[N+]([O-])c1cn2c(n1)OC[C@@H](OCc1ccc(OC(F)(F)F)cc1)C2 [Pretomanid, pretomanid]
M. tuberculosis H37Rv [12]
  Serum shift (fold increase): 4 fold
M. tuberculosis Erdman
  Serum shift (fold increase): 4 fold

## COc1ncnc(Cn2cc(C(=O)NCCO)c3ncc(C)cc32)c1C [TBA-7371]
M. tuberculosis [9]; 100 mg/kg QD
  CFU reduction in lungs: 1.5 log10 CFU
M. tuberculosis [10]
  MIC: 0.64 µg/mL (≈ 1.8 µM)
M. tuberculosis [13]
  CFU reduction in lungs compared to untreated controls: more than 2 log10 CFU
M. tuberculosis [5]
  MED99 (minimal effective dose giving 2-log reduction in lung bacterial load vs untreated): 100 mg/kg
[6]
  dose at which maximal efficacy in spleens was achieved: ≥ 200 mg/kg
  LME (lowest dose with the maximum effect) in lungs: 100 mg/kg
  CFU reduction in spleen: dose-dependent CFU reduction
[6]; 8 weeks, 100 and 200 mg/kg BID
  average lung CFU reduction compared to untreated controls: 1.5 log10 CFU
[6]; lungs
  effect on lung CFU compared to pretreatment control and untreated controls: not statistically significant
[6]; [14]
  lung bacterial load compared to the untreated control group: statistical significant reduction in the lung bacterial load
[7]; C3HeB/FeJ, mouse, in vivo, 100 mg/kg
  Cmax: ~8600 ng/g
